Assay [1] addresses T1, human V1a receptor (Homo sapiens, UniProt P37288).
T1 construct: expressed in transfected cells; host or cells: CHO K1 (ATCC), also stably transfected with a modified aequorin
Kind of assay: Cellular in vitro assay for determining vasopressin receptor activity (V1a cell line, aequorin luminescence). The assay is classed as cell-based. The following applies: Table 1A, compounds of the invention; for IC50: CHO cell line transfected with human V1a receptor, antagonism of [Arg8]-vasopressin at EC50, read-out: IC50 hV1a; for ratio IC50 hV2/hV1a: selectivity ratio. The protocol: (§1) B-1. Cellular In Vitro Assay for Determining Vasopressin Receptor Activity
(§2) The identification of agonists and antagonists of the V1a and V2 vasopressin receptors from humans, rats and dogs as well as the quantification of the activity of the compounds of the invention is carried out using recombinant cell lines. These cell lines originally derive from a hamster's ovary epithelial cell (Chinese Hamster Ovary, CHO K1, ATCC: American Type Culture Collection, Manassas, Va. 20108, USA). The test cell lines constitutively express the human, rat or dog V1a or V2 receptors. In case of the Gαq-coupled V1a receptors, cells are also stably transfected with a modified form of the calcium-sensitive photoproteins aequorin (human and rat V1a) or obelin (dog V1a), which, after reconstitution with the cofactor coelenterazine, emit light when there are increases in free calcium concentrations [Rizzuto R, Simpson A W, Brini M, Pozzan T, Nature 358, 325-327 (1992); Illarionov B A, Bondar V S, Illarionova V A, Vysotski E S, Gene 153 (2), 273-274 (1995)]. The resulting vasopressin receptor cells react to stimulation of the recombinantly expressed V1a receptors by intracellular release of calcium ions, which can be quantified by the resulting photoprotein luminescence. The Gs-coupled V2 receptors are stably transfected into cell lines expressing the gene for firefly luciferase under control of a CRE-responsible promoter. Activation of V2 receptors induces the activation of the CRE-responsive promoter via cAMP increase, thereby inducing the expression of firefly luciferase. The light emitted by photoproteins of V1a cell lines as well as the light emitted by firefly luciferase of V2 cell lines corresponds to the activation or inhibition of the respective vasopressin receptor. The bioluminescence of the cell lines is detected using a suitable luminometer [Milligan G, Marshall F, Rees S, Trends in Pharmacological Sciences 17, 235-237 (1996)].
Vasopressin V1a Receptor Cell Lines:
On the day before the assay, the cells are plated out in culture medium (DMEM/F12, 2% FCS, 2 mM glutamine, 10 mM HEPES, 5 μg/ml coelenterazine) in 384-well microtiter plates and kept in a cell incubator (96% humidity, 5% v/v CO2, 37° C.). On the day of the assay, test compounds in various concentrations are placed for 10 minutes in the wells of the microtiter plate before the agonist [Arg^8]-vasopressin at EC50 concentration is added. The resulting light signal is measured immediately in a luminometer.
(§3) Table 1A below lists individual IC50 values for the compounds of the invention (including racemic mixtures as well as separated enantiomers) that were obtained from cell lines transfected with the human V1a or V2 receptor: […]

For assay [2], the target named is T2, human V2 receptor (Homo sapiens, UniProt P30518).
T2 construct: expressed in transfected cells; host or cells: CHO K1 (ATCC) line expressing firefly luciferase under a CRE-responsive promoter
Nature of the assay: Cellular in vitro assay for determining vasopressin receptor activity (V2 cell line, CRE-luciferase). The assay is classed as cell-based. The following applies: CHO cell line transfected with human V2 receptor; antagonism of [Arg8]-vasopressin at EC50; Table 1A, compounds of the invention; read-out: IC50 hV2. On the procedure: as §1, §2
Vasopressin V2 Receptor Cell Lines:
On the day before the assay, the cells are plated out in culture medium (DMEM/F12, 2% FCS, 2 mM glutamine, 10 mM HEPES) in 384-well microtiter plates and kept in a cell incubator (96% humidity, 5% v/v CO2, 37° C.). On the day of the assay, test compounds in various concentrations and the agonist [Arg^s]-vasopressin at EC50 concentration are added together to the wells, and plates are incubated for 3 hours in a cell incubator. Upon addition of the cell lysis reagent Triton™ and the substrate luciferin, luminescence of firefly luciferase is measured in a luminometer.
as §3

One may read the IC50 as the concentration needed to halve the response being measured.

T1 sequence (P37288 whole entry): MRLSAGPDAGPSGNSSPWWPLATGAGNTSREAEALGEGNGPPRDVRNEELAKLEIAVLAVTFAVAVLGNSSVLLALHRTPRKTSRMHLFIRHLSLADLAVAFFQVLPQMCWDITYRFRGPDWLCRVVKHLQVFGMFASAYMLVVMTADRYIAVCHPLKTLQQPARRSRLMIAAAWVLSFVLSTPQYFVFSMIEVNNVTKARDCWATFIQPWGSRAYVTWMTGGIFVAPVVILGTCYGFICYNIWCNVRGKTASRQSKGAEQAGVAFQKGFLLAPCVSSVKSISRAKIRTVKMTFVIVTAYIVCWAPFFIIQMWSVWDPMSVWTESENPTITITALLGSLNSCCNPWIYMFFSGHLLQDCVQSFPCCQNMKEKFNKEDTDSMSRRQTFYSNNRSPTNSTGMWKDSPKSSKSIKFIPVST
T2 sequence (P30518 whole entry): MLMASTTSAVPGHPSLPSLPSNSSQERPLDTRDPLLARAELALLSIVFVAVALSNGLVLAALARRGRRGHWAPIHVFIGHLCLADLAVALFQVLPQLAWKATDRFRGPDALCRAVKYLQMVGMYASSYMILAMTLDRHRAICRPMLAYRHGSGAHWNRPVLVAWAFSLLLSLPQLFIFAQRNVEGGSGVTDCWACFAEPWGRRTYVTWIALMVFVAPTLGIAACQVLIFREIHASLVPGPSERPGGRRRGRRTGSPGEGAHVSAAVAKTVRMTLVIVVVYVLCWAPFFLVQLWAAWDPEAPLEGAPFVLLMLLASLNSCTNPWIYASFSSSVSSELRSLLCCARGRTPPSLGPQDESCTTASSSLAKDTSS

Regarding `NC(=O)c1nc(Cn2nc(-c3ccc(Cl)cc3)n(C[C@@H](O)C(F)(F)F)c2=O)nn1-c1ncccc1C(F)(F)F` [Example 11, 3-({3-(4-Chlorophenyl)-5-oxo-4-[(2R)-3,3,3-trifluoro-2-hydroxypropyl]-4,5-dihydro-1H-1,2,4-triazol-1-yl}methyl)-1-[3-(trifluoromethyl)pyridin-2-yl]-1H-1,2,4-triazole-5-carboxamide], the half-maximal inhibitory concentration (IC50) in assay [1] is 3.1 nM; in assay [2] it was 610 nM.
`NC(=O)c1nc(Cn2nc(-c3ccc(Cl)cc3)n(C[C@H](O)C(F)(F)F)c2=O)nn1-c1ncccc1C(F)(F)F` [Example 2, 3-({3-(4-Chlorophenyl)-5-oxo-4-[(2S)-3,3,3-trifluoro-2-hydroxypropyl]-4,5-dihydro-1H-1,2,4-triazol-1-yl}methyl)-1-[3-(trifluoromethyl)pyridin-2-yl]-1H-1,2,4-triazole-5-carboxamide]: the IC50 was 1.2 nM in assay [1] and 170 nM in assay [2].
For the compound `NC(=O)c1nc(Cn2nc(-c3ccc(Cl)cc3)n(C[C@@H](O)C(F)(F)F)c2=O)nn1-c1cnccc1C(F)(F)F` [Example 13, 3-({3-(4-Chlorophenyl)-5-oxo-4-[(2R)-3,3,3-trifluoro-2-hydroxypropyl]-4,5-dihydro-H-1,2,4-triazol-1-yl}methyl)-1-[4-(trifluoromethyl)pyridin-3-yl]-1H-1,2,4-triazole-5-carboxamide], the results for the IC50 in assay [1] and in assay [2] were 1.6 nM and 690 nM, respectively.
In the same order, the values of `NC(=O)c1nc(Cn2nc(-c3ccc(Cl)cc3)n(C[C@H](O)C(F)(F)F)c2=O)nn1-c1ncccc1Cl` [Example 1, 3-({3-(4-Chlorophenyl)-5-oxo-4-[(2S)-3,3,3-trifluoro-2-hydroxypropyl]-4,5-dihydro-1H-1,2,4-triazol-1-yl}methyl)-1-(3-chloropyridin-2-yl)-1H-1,2,4-triazole-5-carboxamide] are 1.02 nM and 39 nM.
Turning to `NC(=O)c1cccnc1-n1nc(Cn2nc(-c3ccc(Cl)cc3)n(C[C@H](O)C(F)(F)F)c2=O)nc1C(N)=O` [Example 9, 2-[5-carbamoyl-3-({3-(4-chlorophenyl)-5-oxo-4-[(2S)-3,3,3-trifluoro-2-hydroxypropyl]-4,5-dihydro-1H-1,2,4-triazol-1-yl}methyl)-1H-1,2,4-triazol-1-yl]nicotinamide], in assay [1], the IC50 was found to be 75 nM and the “ratio IC50 hV2/hV1a” value is recorded as 30.0. Moreover, the IC50 in assay [2] is 2250 nM.
Consider `NC(=O)c1nc(Cn2nc(-c3ccc(Cl)cc3)n(C[C@@H](O)C(F)(F)F)c2=O)nn1-c1cnccc1Cl` [Example 12, 3-({3-(4-Chlorophenyl)-5-oxo-4-[(2R)-3,3,3-trifluoro-2-hydroxypropyl]-4,5-dihydro-H-1,2,4-triazol-1-yl}methyl)-1-(4-chloropyridin-3-yl)-1H-1,2,4-triazole-5-carboxamide], for which the IC50 is 3.45 nM in assay [1] and 860 nM in assay [2].
`NC(=O)c1nc(Cn2nc(-c3ccc(Cl)cc3)n(CC(=O)C(F)(F)F)c2=O)nn1-c1cnccc1Cl` [Example 16, 3-{[3-(4-Chlorophenyl)-5-oxo-4-(3,3,3-trifluoro-2-oxopropyl)-4,5-dihydro-1H-1,2,4-triazol-1-yl]methyl}-1-(4-chloropyridin-3-yl)-1H-1,2,4-triazole-5-carboxamide]: the IC50 in assay [1] was determined as 1.4 nM; in assay [2], 75 nM.
For the compound `NC(=O)c1nc(Cn2nc(-c3ccc(Cl)cc3)n(C[C@H](O)C(F)(F)F)c2=O)nn1-c1cnccc1Cl` [Example 6, 3-({3-(4-Chlorophenyl)-5-oxo-4-[(2S)-3,3,3-trifluoro-2-hydroxypropyl]-4,5-dihydro-1H-1,2,4-triazol-1-yl}methyl)-1-(4-chloropyridin-3-yl)-1H-1,2,4-triazole-5-carboxamide], the IC50 in assay [1] is 0.57 nM; in assay [2], 25 nM.
For the compound `NC(=O)c1nc(Cn2nc(-c3ccc(Cl)cc3)n(CC(=O)C(F)(F)F)c2=O)nn1-c1ncccc1Br` [Example 15, 1-(3-Bromopyridin-2-yl)-3-{[3-(4-chlorophenyl)-5-oxo-4-(3,3,3-trifluoro-2-oxopropyl)-4,5-dihydro-1H-1,2,4-triazol-1-yl]methyl}-1H-1,2,4-triazole-5-carboxamide], the IC50 was determined as 13.5 nM in assay [1] and 637 nM in assay [2].
As for `CCOC(=O)c1cccnc1-n1nc(Cn2nc(-c3ccc(Cl)cc3)n(C[C@H](O)C(F)(F)F)c2=O)nc1C(N)=O` [Example 5, Ethyl 2-[5-carbamoyl-3-({3-(4-chlorophenyl)-5-oxo-4-[(2S)-3,3,3-trifluoro-2-hydroxypropyl]-4,5-dihydro-1H-1,2,4-triazol-1-yl}methyl)-1H-1,2,4-triazol-1-yl]nicotinate], the IC50 in assay [1] is 14.5 nM; in assay [2], 1240 nM.
Take `NC(=O)c1nc(Cn2nc(-c3ccc(Cl)cc3)n(C[C@@H](O)C(F)(F)F)c2=O)nn1-c1ncccc1Cl` [Example 10, 3-({3-(4-Chlorophenyl)-5-oxo-4-[(2R)-3,3,3-trifluoro-2-hydroxypropyl]-4,5-dihydro-1H-1,2,4-triazol-1-yl}methyl)-1-(3-chloropyridin-2-yl)-1H-1,2,4-triazole-5-carboxamide]: the figures for the IC50 in assay [1] and in assay [2] were 6.8 nM and 790 nM, respectively.
For `CCOC(=O)c1ccncc1-n1nc(Cn2nc(-c3ccc(Cl)cc3)n(C[C@H](O)C(F)(F)F)c2=O)nc1C(N)=O` [Example 8, Ethyl 3-[5-carbamoyl-3-({3-(4-chlorophenyl)-5-oxo-4-[(2S)-3,3,3-trifluoro-2-hydroxypropyl]-4,5-dihydro-1H-1,2,4-triazol-1-yl}methyl)-1H-1,2,4-triazol-1-yl]isonicotinate], in assay [1], the IC50 is 25.5 nM and the “ratio IC50 hV2/hV1a” value turned out to be 35.0. For the same compound, in assay [2], the IC50 came to 892 nM.
Consider `NC(=O)c1nc(Cn2nc(-c3ccc(Cl)cc3)n(C[C@H](O)C(F)(F)F)c2=O)nn1-c1ncccc1OC(F)(F)F` [Example 3, 3-({3-(4-Chlorophenyl)-5-oxo-4-[(2S)-3,3,3-trifluoro-2-hydroxypropyl]-4,5-dihydro-1H-1,2,4-triazol-1-yl}methyl)-1-[3-(trifluoromethoxy)pyridin-2-yl]-1H-1,2,4-triazole-5-carboxamide], for which the IC50 amounted to 16 nM in assay [1] and 875 nM in assay [2].
`NC(=O)c1nc(Cn2nc(-c3ccc(Cl)cc3)n(C[C@H](O)C(F)(F)F)c2=O)nn1-c1ncccc1Br` [Example 4, 1-(3-Bromopyridin-2-yl)-3-({3-(4-chlorophenyl)-5-oxo-4-[(2S)-3,3,3-trifluoro-2-hydroxypropyl]-4,5-dihydro-1H-1,2,4-triazol-1-yl}methyl)-1H-1,2,4-triazole-5-carboxamide]: the IC50 in assay [1] is 1.23 nM; in assay [2] it was 89.3 nM.
As for `NC(=O)c1nc(Cn2nc(-c3ccc(Cl)cc3)n(CC(=O)C(F)(F)F)c2=O)nn1-c1ncccc1Cl` [Example 14, 3-{[3-(4-Chlorophenyl)-5-oxo-4-(3,3,3-trifluoro-2-oxopropyl)-4,5-dihydro-H-1,2,4-triazol-1-yl]methyl}-1-(3-chloropyridin-2-yl)-1H-1,2,4-triazole-5-carboxamide], in assay [1], the IC50 was found to be 5.2 nM and the “ratio IC50 hV2/hV1a” value was 20.0. In addition, in assay [2], the IC50 was 104 nM.
For `NC(=O)c1nc(Cn2nc(-c3ccc(Cl)cc3)n(CC(=O)C(F)(F)F)c2=O)nn1-c1ncccc1C(F)(F)F` [Example 17, 3-{[3-(4-Chlorophenyl)-5-oxo-4-(3,3,3-trifluoro-2-oxopropyl)-4,5-dihydro-H-1,2,4-triazol-1-yl]methyl}-1-[3-(trifluoromethyl)pyridin-2-yl]-1H-1,2,4-triazole-5-carboxamide], the “ratio IC50 hV2/hV1a” value in assay [1] is recorded as 66.0.

Source of the values: patent publication US20190144423A1, “AMIDE-SUBSTITUTED PYRIDINYLTRIAZOLE DERIVATIVES AND USES THEREOF” (BAYER PHARMA AKTIENGESELLSCHAFT, priority 2016, published 2019).
